Where two headings read alike, the source gives them in different places.

What all share (type): in vivo
For experiment [1], the system named is barnyardgrass (Echinochloa crus-galli). Kind of experiment: Test B flooded paddy test. The following applies: Echinochloa crus-galli, 250 g ai/ha, Flood, read-out: Barnyardgrass plant response rating. The gist of the method:
(§1)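 Rating scale 0–100 (visual, vs untreated controls) after a 13–15 d greenhouse period; application to the flood layer, 3 cm above soil and maintained; plants at 2-leaf stage when treated.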

A further experiment deals with rice (Oryra sativa). Kind of experiment: Test B flooded paddy test. The following applies: Oryza sativa, 250 g ai/ha, Flood, read-out: Rice plant response rating. The gist of the method:
as §1

Experiment [2] has as its system ducksalad (Heteranthera limosa). In words: Test B flooded paddy test. The conditions noted are these: Heteranthera limosa, 250 g ai/ha, Flood, read-out: Ducksalad plant response rating. The gist of the method: as §1
In experiment [3] the test system is sedge, umbrella (small-flower umbrella sedge, Cyperus difformis). In words: Test B flooded paddy test. The following applies: Cyperus difformis, Flood, 250 g ai/ha. The gist of the method: as §1
Experiment [4] has as its system blackgrass (Alopecurus myosuroides). In words: Test A postemergence. The conditions noted are these: Alopecurus myosuroides, post-emergence, 240 h; for pest or weed control at 125 g/ha: 125 g ai/ha; for pest or weed control at 500 g/ha: 500 g ai/ha; for pest or weed control at 31 g/ha: 31 g ai/ha, visual injury after approx. 10 d, 0 no effect, 100 complete control. Put shortly:
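Ratings of 0 (no effect) to 100 (complete control) come from visual comparison with untreated controls roughly 10 d after treatment. Test chemicals, formulated in a non-phytotoxic solvent mixture with surfactant, were applied either as a preemergence directed soil spray on seeded soil or postemergence to one- to two-leaf plants 2 to 10 cm tall.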

Setting [5] is: 0 to 100 scale where 0 is no effect and 100 is complete control.
Setting [6] is: Postemergence, visual injury, 0 to 100 scale (0 no effect, 100 complete control), approx. 10 d, read-out: Plant response rating, Blackgrass.
[7] abbreviates: 0 to 100 scale where 0 is no effect and 100 is complete control, read-out: Sedge, Umbrella plant response rating.
Where [8] appears, read: postemergence, visual injury vs untreated controls after approx. 10 d, 0 = no effect, 100 = complete control, read-out: Blackgrass plant response rating (0 to 100 scale).
[9] abbreviates: postemergence, 0 to 100 scale, 0 is no effect, 100 is complete control, read-out: Blackgrass plant response rating.
[10] abbreviates: scale of 0 to 100 where 0 is no effect and 100 is complete control.
[11] abbreviates: scale of 0 to 100 where 0 is no effect and 100 is complete control, read-out: Sedge, Umbrella plant response rating.
Setting [12] is: postemergence, visual injury after approximately 10 d, 0 to 100 scale (0 no effect, 100 complete control), read-out: Plant response rating, Blackgrass.
Where [13] appears, read: Postemergence, 0 to 100 scale, read-out: Plant response rating, Blackgrass.

Regarding `CN1C[C@H](c2cccc(C(C)(F)F)c2)[C@@H](C(=O)Nc2cccc(F)c2F)C1=O` [Compound 1316], the pest or weed control at 250 g/ha in experiment [1] (setting [5]) was determined as 75%; with rice (Oryra sativa) (setting [5]) it was 0%; in experiment [2] (setting [5]), 90%; in experiment [3] (360 h, visually evaluated after 13 to 15 d, read-out: Plant response rating, Sedge, Umbrella (0 to 100 scale where 0 is no effect and 100 is complete control)) it was 0%. Also, in experiment [4] (Postemergence, visual rating about 10 d after treatment, read-out: Blackgrass plant response rating (0 to 100 scale)), the pest or weed control at 125 g/ha came out at 70%. Moreover, the pest or weed control at 500 g/ha in experiment [4] (setting [6]) turned out to be 80%.
Regarding `COc1cc(C(F)(F)F)ccc1[C@H]1CN(C)C(=O)[C@@H]1C(=O)Nc1cccc(F)c1C` [Compound 1205], the pest or weed control at 250 g/ha turned out to be 40% in experiment [1] (setting [5]), 20% in the experiment on rice (Oryra sativa) (setting [5]), 100% in experiment [2] (setting [5]) and 0% in experiment [3] (setting [7]). Further, the pest or weed control at 125 g/ha in experiment [4] (setting [8]) was 0%. In addition, in experiment [4] (setting [9]), the pest or weed control at 500 g/ha came to 20%.
Take `CN1C[C@H](c2cccc([N+](=O)[O-])c2)[C@@H](C(=O)Nc2cccc(F)c2F)C1=O` (racemic) [Compound 776]: the pest or weed control at 250 g/ha in experiment [1] (setting [10]) is 80%; in the experiment on rice (Oryra sativa) (setting [10]) it was 0%; in experiment [2] (setting [10]), 80%; in experiment [3] (setting [11]), 0%. The pest or weed control at 125 g/ha in experiment [4] (setting [12]) amounted to 30%.
Consider `CN1CC[C@H](c2ccc(C(F)(F)F)cc2)[C@@H](C(=O)Nc2cccc(F)c2F)C1=O` [Compound 1225], for which the pest or weed control at 250 g/ha in experiment [1] (setting [5]) worked out at 80%; in the experiment with rice (Oryra sativa) (setting [5]), 20%; in experiment [2] (setting [5]) it was 100%; in experiment [3] (setting [7]), 0%. For the same compound, the pest or weed control at 125 g/ha in experiment [4] (setting [8]) is 30%. In addition, the pest or weed control at 500 g/ha in experiment [4] (setting [9]) stood at 40%.
On to `COc1cc([C@H]2CN(C)C(=O)[C@@H]2C(=O)Nc2cccc(F)c2F)ccc1C(F)(F)F` [Compound 770], for which the pest or weed control at 250 g/ha (in experiment [1] (setting [10]); in the experiment on rice (Oryra sativa) (setting [10]); in experiment [2] (setting [10]); in experiment [3] (setting [11])) was 0% in each case. Besides, the pest or weed control at 125 g/ha in experiment [4] (setting [12]) was found to be 0%. Also, the pest or weed control at 31 g/ha in experiment [4] (setting [13]) is 0%.
For `CSc1ccccc1NC(=O)[C@H]1C(=O)N(C)C[C@@H]1c1cc(C)c(C)c(C)c1` [Compound 798], the pest or weed control at 250 g/ha in experiment [1] (setting [10]) is 75%; in the experiment with rice (Oryra sativa) (setting [10]), 40%; in experiment [2] (setting [10]), 50%; in experiment [3] (setting [11]), 0%. For the same compound, the pest or weed control at 125 g/ha in experiment [4] (setting [12]) came out at 40%. Besides, in experiment [4] (setting [13]), the pest or weed control at 31 g/ha was determined as 0%.
Regarding `CC(F)(F)c1cccc([C@H]2CNC(=O)[C@@H]2C(=O)Nc2ccccc2S(C)(=O)=O)c1` [Compound 780], the pest or weed control at 250 g/ha in experiment [1] (setting [10]) was 20%; in the experiment with rice (Oryra sativa) (setting [10]) it was 0%; in experiment [2] (setting [10]), 90%; in experiment [3] (setting [11]), 0%. Further, the pest or weed control at 125 g/ha in experiment [4] (setting [12]) turned out to be 50%.
In the case of `C=CCN1C[C@H](c2ccc(OC)c(F)c2)[C@@H](C(=O)Nc2ccccc2S(C)(=O)=O)C1=O` [Compound 724], the pest or weed control at 250 g/ha (in experiment [1] (setting [10]); in the experiment on rice (Oryra sativa) (setting [10]); in experiment [2] (setting [10]); in experiment [3] (setting [11])) was 0% each time. In experiment [4] (setting [12]), the pest or weed control at 125 g/ha came to 0%.
For `N#Cc1cc([C@H]2CNC(=O)[C@]2(O)C(=O)Nc2ccccc2F)ccc1F` [Compound 1200], the pest or weed control at 250 g/ha (in experiment [1] (setting [5]); with rice (Oryra sativa) (setting [5]); in experiment [2] (setting [5]); in experiment [3] (setting [7])) was 0% throughout. Also, the pest or weed control at 125 g/ha in experiment [4] (setting [8]) worked out at 0%. In addition, the pest or weed control at 500 g/ha in experiment [4] (setting [9]) worked out at 0%.
Take `CN1C[C@H](c2ccc(F)c(C#N)c2)[C@@H](C(=O)Nc2ccccc2F)C1=O` [Compound 1254]: the pest or weed control at 250 g/ha in experiment [1] (setting [5]) came out at 60%; in the experiment with rice (Oryra sativa) (setting [5]) it was 0%; in experiment [2] (setting [5]) it was 100%; in experiment [3] (setting [7]), 0%. The pest or weed control at 125 g/ha in experiment [4] (setting [8]) came out at 0%. The pest or weed control at 500 g/ha in experiment [4] (setting [6]) is 40%.

(Values after patent US12077503B2, “Substituted cyclic amides and their use as herbicides” (FMC CORPORATION, priority 2015, dated 2024).)
